{
  "source": "paper PMC3009454",
  "about": "(Bioconjugate chemistry, 2009)",
  "origin": "cited, not measured here",
  "tested_on": "primary melanoma and pulmonary melanoma metastases",
  "conditions": "small animal SPECT/CT",
  "data": [
    {"substance": "^111In-1,4,7,10-tetraazacyclododecane-1,4,7,10-tetraacetic acid-c[Lys-Nle-Glu-His-DPhe-Arg-Trp-Gly-Arg-Pro-Val-Asp] (sidechain bridge or staple) [^111In-DOTA-GlyGlu-CycMSH]", "values": [
      {"measurement": "SPECT/CT visualization of primary melanoma and pulmonary melanoma metastases", "result": "clearly visualized"}
    ]}
  ]
}
